Results reported in ChEMBL document CHEMBL1201862, “PubChem BioAssay data set” (2004).
Calls of active or inactive are those of the source.

What was measured:
Bcl-2-like protein 10 = target: T1, Bcl-2-like protein 10 (Homo sapiens, UniProt Q9HD36); experiment: Bcl-B/TR3 peptide binding disruption – biochemical, fluorescence polarization, FITC-TR3 peptide, selectivity assay for Bfl-1 inhibitor project, primary screen (AID 748);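 also: fluorescence polarization from a fluorescein-labelled TR3 peptide binding purified Bcl-B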
T1 sequence (Q9HD36 whole entry): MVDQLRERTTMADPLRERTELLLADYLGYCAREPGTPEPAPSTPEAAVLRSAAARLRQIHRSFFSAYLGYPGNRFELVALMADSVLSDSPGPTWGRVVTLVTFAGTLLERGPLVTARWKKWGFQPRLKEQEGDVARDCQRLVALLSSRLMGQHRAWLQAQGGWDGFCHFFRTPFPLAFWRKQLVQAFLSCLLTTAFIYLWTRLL

Genome polyprotein = Genome polyprotein (dengue virus type 2, UniProt P29990); experiment: flavivirus cap methylation enzyme inhibition – biochemical, confirmation dose response, primary screen (AID 588689); format: functional
Chain of Genome polyprotein (P29990 2492-3391 limits assumed): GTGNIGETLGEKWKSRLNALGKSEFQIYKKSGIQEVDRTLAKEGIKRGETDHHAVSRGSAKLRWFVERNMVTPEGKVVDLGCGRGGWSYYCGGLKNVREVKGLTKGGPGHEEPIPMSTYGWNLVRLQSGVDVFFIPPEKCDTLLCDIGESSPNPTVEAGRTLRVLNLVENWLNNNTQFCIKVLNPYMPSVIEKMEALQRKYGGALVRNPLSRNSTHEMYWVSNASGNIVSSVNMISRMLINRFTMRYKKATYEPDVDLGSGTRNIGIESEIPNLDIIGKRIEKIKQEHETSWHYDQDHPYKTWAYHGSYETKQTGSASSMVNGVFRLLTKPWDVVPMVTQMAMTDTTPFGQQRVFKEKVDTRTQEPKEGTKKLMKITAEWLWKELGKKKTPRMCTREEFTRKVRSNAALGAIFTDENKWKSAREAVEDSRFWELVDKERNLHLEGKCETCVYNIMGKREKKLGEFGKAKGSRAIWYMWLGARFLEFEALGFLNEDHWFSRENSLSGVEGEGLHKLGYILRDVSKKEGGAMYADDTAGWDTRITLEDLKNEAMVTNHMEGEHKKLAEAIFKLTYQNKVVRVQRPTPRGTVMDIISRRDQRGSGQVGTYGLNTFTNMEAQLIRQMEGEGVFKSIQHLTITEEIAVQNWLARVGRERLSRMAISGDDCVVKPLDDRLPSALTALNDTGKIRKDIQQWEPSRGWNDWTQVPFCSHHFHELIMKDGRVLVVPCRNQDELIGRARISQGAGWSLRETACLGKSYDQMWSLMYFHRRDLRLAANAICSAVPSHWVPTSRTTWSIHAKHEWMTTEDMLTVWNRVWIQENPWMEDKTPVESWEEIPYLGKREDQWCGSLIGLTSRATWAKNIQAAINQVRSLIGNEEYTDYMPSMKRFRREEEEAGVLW

Estrogen receptor = target: T2, Estrogen receptor (Homo sapiens, UniProt P03372);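 also: potency for inhibiting coactivator peptide recruitment to the receptor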
T2 sequence (P03372 whole entry): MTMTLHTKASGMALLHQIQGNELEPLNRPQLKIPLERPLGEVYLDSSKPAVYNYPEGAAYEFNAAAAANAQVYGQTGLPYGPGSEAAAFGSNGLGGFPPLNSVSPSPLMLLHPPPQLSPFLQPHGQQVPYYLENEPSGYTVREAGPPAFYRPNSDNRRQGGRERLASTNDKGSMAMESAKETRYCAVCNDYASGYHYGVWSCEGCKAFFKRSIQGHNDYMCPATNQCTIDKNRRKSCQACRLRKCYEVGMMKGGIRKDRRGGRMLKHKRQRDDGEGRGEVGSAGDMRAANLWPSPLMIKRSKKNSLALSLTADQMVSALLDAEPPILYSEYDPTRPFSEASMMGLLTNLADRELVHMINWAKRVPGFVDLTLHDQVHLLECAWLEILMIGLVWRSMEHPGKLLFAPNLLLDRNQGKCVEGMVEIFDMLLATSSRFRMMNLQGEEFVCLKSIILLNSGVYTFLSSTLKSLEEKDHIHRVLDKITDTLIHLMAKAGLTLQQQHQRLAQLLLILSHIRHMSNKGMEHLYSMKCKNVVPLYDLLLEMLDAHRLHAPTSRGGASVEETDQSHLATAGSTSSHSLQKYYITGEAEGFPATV

Estrogen receptor beta = Estrogen receptor beta (Homo sapiens, UniProt Q92731); experiment: blockers of SRC-3 recruitment to ERβ – biochemical, ELISA, streptavidin-HRP readout, orthogonal assay, confirmation (AID 1060)
Chain of Estrogen receptor beta (Q92731 whole entry): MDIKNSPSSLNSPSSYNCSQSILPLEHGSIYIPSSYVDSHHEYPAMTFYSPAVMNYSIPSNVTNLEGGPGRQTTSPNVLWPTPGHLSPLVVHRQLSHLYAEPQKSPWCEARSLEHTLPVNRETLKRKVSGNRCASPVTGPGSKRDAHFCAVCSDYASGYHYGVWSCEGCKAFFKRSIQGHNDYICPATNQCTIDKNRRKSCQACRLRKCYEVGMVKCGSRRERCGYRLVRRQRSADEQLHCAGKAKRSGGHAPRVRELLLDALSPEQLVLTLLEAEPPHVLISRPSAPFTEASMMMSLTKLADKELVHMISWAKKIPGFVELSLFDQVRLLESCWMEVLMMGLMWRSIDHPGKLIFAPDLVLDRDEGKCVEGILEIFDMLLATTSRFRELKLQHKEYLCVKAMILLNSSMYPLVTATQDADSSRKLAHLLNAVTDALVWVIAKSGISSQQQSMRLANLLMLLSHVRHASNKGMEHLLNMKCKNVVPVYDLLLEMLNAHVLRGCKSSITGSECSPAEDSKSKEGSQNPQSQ

NS3 = NS3 (Hepatitis C virus, UniProt A3EZJ3); experiment: PubChem AID 2173; parameters: species or system Hepacivirus hominis
Chain of NS3 (A3EZJ3 whole entry): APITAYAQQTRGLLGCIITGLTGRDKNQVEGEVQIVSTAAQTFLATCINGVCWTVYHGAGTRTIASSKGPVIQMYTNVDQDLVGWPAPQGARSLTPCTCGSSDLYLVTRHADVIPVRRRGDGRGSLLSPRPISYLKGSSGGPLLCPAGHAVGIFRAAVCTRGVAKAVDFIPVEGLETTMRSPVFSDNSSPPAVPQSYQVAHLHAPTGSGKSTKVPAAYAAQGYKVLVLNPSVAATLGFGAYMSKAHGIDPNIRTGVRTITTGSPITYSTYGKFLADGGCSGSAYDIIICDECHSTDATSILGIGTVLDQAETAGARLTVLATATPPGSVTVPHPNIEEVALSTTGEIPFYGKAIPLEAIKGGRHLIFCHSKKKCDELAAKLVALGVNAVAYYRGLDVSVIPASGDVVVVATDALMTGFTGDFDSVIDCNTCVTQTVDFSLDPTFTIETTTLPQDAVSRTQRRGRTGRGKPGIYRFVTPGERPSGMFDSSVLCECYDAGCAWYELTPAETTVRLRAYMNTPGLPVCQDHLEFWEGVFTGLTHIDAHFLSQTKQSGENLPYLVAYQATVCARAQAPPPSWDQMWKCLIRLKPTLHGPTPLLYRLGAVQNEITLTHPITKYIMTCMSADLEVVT

[1] = target: Voltage-gated N-type calcium channel alpha-1B subunit/Amyloid beta A4 precursor protein-binding family A member 1 (Homo sapiens, UniProt Q00975+Q02410); experiment: disruptors of Mint-PDZ/N-type channel peptide interaction – biochemical, HTRF, SAR follow-up (AID 2489); format: functional
[2] = Vero E6 cell cytotoxicity, dose response, cytotoxicity control for non-replicating M. tuberculosis project, secondary assay (AID 492998); format: functional, VeroE6; settings: Vero C1008
[3] = HepG2 cell cytotoxicity, dose response, cytotoxicity control for non-replicating M. tuberculosis project (AID 489018); format: functional; settings: Mycobacterium tuberculosis
[4] = viability loss in HEK293 cells – cell-based, plate reader, cherry-picked samples, cytotoxicity control, dose response (AID 743446); format: functional
INS1 = experiment: INS-1E survival protection against cytokine death – cell-based, luminescence, retest, dose response (AID 449756); format: functional; settings: Rattus norvegicus;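 also: cell death triggered by IL-1 beta plus TNF-alpha plus IFN-gamma mixture; protective hits raise ATP signal compared with cytokine alone wells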
cells = format: functional
[5] = blockade of melanocortin 4 receptor signaling – cell-based, plate reader, cherry pick, counter-screen for LGR2 antagonist project, dose response (AID 743444); format: functional;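 also: transfected HEK 293 cells stimulated with alpha-MSH peptide; potency of inhibitors of the alpha-MSH evoked signal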
[6] = target: Induced myeloid leukemia cell differentiation protein Mcl-1 (Homo sapiens, UniProt Q07820); format: functional
Paired box protein Pax-8 = Paired box protein Pax-8 (Homo sapiens, UniProt Q06710); experiment: PAX8 transcriptional activity inhibition in RMG-I – RMG-I cells, luciferase, cherry-pick, dose response (AID 687027); format: functional, cell-based;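 also: luciferase reporter driven by Pax8 target thyroperoxidase promoter measured by SteadyGlo luminescence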
Chain of Paired box protein Pax-8 (Q06710 whole entry): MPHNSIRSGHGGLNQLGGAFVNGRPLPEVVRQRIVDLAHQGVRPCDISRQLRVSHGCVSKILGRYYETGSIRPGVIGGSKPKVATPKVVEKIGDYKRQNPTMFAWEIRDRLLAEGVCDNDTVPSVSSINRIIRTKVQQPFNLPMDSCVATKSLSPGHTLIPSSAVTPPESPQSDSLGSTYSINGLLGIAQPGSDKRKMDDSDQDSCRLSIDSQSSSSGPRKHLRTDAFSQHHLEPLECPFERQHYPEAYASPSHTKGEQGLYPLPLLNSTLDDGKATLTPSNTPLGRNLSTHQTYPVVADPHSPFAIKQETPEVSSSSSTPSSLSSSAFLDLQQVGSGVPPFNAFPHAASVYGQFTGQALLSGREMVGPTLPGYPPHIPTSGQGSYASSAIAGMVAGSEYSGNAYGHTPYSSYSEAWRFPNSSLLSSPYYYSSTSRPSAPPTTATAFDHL

[7] = A549 cell cytotoxicity, dose response, cytotoxicity control, plate reader, cherry-pick, antagonist series (AID 743412); format: functional, cell-based
[8] = toxicity toward HepG2 liver cells – cell-based, plate reader, cherry-pick, antagonist series, cytotoxicity control, dose response (AID 743416); format: functional
[9] = THP-1 cell cytotoxicity, dose response, cytotoxicity control for non-replicating M. tuberculosis project (AID 489025); format: functional
[10] = blockers of bursicon-stimulated LGR2 cAMP reporter – cell-based, HEK293, CRE-luciferase reporter, cherry pick, set 2, dose response (AID 743343); format: functional;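 also: transfected cells were stimulated with diluted bursicon conditioned medium after compound addition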
[11] = target: 26S proteasome non-ATPase regulatory subunit 14 (Homo sapiens, UniProt O00487); experiment: inhibition of proteasome subunit RPN11 – biochemical, fluorescence polarization, uHTS hits, confirmation (AID 602368); format: functional
Chain of 26S proteasome non-ATPase regulatory subunit 14 (O00487 whole entry): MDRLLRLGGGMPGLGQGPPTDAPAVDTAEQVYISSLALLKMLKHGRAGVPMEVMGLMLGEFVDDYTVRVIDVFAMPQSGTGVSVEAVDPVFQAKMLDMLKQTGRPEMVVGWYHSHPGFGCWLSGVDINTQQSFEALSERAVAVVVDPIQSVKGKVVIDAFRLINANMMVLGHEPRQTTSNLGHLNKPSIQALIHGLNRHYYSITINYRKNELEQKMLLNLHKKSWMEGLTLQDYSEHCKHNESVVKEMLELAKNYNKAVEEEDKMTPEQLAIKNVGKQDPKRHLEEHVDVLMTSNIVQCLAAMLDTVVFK

Prothrombin = Prothrombin (Bos taurus, UniProt P00735); experiment: thrombin protease inhibitors – biochemical, fluorescence polarization, uHTS hits, dose response (AID 602369); format: functional
[12] = target: 72 kDa type IV collagenase (Homo sapiens, UniProt P08253); experiment: Dose Response validation of uHTS RPN11 inhibitor hits using a MMP-2 Fluorescence assay.; format: functional
Chain of 72 kDa type IV collagenase (P08253 whole entry): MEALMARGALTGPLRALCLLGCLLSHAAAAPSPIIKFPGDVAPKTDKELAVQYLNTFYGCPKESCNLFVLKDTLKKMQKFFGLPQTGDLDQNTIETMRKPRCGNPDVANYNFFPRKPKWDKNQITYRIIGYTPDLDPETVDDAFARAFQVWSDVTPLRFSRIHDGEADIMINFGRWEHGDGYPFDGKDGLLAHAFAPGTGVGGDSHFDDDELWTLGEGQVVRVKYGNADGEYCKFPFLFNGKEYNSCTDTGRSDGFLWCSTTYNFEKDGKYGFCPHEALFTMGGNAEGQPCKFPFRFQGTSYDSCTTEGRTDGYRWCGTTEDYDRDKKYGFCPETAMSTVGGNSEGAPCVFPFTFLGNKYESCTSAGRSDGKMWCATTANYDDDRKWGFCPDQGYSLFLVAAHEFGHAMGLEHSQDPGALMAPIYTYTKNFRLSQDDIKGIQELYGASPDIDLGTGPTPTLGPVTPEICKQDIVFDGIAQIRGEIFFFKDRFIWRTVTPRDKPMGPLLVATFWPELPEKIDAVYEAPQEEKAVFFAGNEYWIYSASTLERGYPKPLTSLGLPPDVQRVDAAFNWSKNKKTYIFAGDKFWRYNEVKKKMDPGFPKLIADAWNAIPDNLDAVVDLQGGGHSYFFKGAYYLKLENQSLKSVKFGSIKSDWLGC

Large T antigen = Large T antigen (Simian virus 40, UniProt P03070); format: functional, Betapolyomavirus macacae;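 also: Confirmatory-stage PubChem screen for compounds that inhibit SV40 T antigen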
Chain of Large T antigen (P03070 whole entry): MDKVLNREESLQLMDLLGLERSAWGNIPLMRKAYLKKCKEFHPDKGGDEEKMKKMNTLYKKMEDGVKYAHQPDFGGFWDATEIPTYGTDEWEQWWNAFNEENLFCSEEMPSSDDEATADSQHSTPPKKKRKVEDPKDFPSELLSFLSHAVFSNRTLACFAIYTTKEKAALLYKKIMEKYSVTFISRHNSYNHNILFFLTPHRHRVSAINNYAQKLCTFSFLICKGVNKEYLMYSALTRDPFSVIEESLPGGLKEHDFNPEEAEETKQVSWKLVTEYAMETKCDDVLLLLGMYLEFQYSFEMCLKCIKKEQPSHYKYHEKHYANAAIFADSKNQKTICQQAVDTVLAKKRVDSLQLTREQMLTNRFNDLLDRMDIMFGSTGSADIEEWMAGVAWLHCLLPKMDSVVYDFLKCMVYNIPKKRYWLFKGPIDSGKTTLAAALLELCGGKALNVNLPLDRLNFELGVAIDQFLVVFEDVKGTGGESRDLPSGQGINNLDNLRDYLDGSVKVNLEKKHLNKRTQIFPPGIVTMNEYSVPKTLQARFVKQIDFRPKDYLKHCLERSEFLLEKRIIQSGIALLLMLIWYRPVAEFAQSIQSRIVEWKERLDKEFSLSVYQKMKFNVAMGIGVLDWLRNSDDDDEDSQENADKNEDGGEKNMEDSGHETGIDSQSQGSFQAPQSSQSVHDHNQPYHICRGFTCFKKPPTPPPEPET

ORF 73 = target: T3, ORF 73 (Human herpesvirus 8, UniProt O40947); experiment: KSHV LANA DNA-binding disruption – biochemical, fluorescence polarization, cherry-picked samples, dose response (AID 504725); parameters: species or system Human gammaherpesvirus 8;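 also: fluorescence polarization of a labeled DNA duplex reporting LANA DNA binding; potency is for inhibitors that block LANA binding to the DNA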
T3 sequence (O40947 whole entry): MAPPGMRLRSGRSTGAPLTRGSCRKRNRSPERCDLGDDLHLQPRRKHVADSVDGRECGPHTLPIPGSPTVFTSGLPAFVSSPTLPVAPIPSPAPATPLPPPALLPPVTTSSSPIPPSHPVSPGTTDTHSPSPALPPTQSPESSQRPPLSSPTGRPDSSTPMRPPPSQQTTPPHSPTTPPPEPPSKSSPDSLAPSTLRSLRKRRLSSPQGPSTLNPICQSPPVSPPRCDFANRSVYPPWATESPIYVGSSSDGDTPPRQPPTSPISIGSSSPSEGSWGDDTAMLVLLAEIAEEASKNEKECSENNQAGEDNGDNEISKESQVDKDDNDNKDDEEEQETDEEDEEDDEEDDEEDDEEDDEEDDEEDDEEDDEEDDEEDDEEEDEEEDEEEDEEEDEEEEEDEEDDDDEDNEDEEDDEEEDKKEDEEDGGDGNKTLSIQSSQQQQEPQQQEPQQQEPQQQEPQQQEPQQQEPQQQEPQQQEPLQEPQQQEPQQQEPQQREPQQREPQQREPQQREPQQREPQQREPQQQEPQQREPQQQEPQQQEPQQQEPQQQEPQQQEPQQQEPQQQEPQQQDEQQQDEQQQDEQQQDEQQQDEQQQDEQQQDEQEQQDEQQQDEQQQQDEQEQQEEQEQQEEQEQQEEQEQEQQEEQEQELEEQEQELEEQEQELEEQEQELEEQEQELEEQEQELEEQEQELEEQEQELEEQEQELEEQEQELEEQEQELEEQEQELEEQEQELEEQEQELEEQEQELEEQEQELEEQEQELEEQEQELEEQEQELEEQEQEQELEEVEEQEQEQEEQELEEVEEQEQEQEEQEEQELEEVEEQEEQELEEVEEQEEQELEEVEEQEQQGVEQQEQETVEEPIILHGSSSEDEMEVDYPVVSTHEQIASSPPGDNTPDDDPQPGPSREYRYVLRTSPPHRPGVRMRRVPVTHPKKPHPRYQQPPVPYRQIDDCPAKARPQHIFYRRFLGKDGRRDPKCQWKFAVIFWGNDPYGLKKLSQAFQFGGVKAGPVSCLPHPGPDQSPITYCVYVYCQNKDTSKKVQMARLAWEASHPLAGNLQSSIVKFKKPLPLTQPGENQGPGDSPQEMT

Troponin, cardiac muscle = Troponin, cardiac muscle (Homo sapiens, UniProt P19429+P45379+P63316); experiment: compounds desensitizing RTF to calcium – biochemical, fluorescence, cardiac regulated thin filaments, triplicate IC50, dose response (AID 504742); format: protein-complex assay
X-box-binding protein 1 = target: T4, X-box-binding protein 1 (Homo sapiens, UniProt P17861); format: functional, Cricetulus griseus;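 also: confirmatory dose-response counter-screen serving a CHOP assay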
T4 sequence (P17861 whole entry): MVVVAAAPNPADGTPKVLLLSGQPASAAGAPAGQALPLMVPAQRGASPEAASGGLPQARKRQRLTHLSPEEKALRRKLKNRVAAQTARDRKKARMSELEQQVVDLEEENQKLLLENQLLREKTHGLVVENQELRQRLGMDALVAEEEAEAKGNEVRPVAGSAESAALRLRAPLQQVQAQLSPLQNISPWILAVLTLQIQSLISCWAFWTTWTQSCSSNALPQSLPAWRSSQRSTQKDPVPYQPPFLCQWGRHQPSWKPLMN

[13] = target: T5, Scavenger receptor class B member 1 (Mus musculus, UniProt Q61009); experiment: mouse SR-BI DiI-HDL uptake blockers – ldlA[mSR-BI] cells, fluorescence, cherry pick, dose response (AID 493194); format: functional, cell-based;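 also: cellular uptake of fluorescent DiI-labeled HDL measured as cell fluorescence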
T5 sequence (Q61009 whole entry): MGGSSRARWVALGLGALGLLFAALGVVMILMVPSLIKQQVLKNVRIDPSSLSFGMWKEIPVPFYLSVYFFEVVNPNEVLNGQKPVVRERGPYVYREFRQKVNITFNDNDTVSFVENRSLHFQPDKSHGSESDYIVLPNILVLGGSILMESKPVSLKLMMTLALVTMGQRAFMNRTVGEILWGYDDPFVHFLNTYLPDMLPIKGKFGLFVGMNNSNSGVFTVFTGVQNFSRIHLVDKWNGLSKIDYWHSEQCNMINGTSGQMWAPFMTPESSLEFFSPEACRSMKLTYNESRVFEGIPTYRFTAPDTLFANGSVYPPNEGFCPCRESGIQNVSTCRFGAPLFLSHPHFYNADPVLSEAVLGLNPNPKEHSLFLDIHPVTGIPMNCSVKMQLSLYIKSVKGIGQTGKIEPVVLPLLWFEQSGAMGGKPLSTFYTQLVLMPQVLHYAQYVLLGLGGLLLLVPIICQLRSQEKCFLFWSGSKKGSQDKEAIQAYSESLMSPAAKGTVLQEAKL

Kallikrein-7 = Kallikrein-7 (Homo sapiens, UniProt P49862); experiment: Fluorescence Intensity-based biochemical primary high throughput dose response assay to identify activators of kallikrein-7 (K7) zymogen.
Chain of Kallikrein-7 (P49862 whole entry): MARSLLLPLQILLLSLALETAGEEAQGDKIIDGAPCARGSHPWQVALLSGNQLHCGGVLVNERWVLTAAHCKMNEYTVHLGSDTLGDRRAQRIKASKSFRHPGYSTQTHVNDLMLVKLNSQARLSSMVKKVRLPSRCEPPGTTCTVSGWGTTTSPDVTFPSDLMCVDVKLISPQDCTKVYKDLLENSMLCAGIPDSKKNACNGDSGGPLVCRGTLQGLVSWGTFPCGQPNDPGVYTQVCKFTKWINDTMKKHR

[14] = target: Intestinal-type alkaline phosphatase (Homo sapiens, UniProt P09923); experiment: Dose Response confirmation of uHTS hits from a small molecule inhibitors of human intestinal alkaline phosphatase via a luminescent assay. [Related pubchem assays (depositor defined):AID2544, AID2574]; format: functional
Chain of Intestinal-type alkaline phosphatase (P09923 whole entry): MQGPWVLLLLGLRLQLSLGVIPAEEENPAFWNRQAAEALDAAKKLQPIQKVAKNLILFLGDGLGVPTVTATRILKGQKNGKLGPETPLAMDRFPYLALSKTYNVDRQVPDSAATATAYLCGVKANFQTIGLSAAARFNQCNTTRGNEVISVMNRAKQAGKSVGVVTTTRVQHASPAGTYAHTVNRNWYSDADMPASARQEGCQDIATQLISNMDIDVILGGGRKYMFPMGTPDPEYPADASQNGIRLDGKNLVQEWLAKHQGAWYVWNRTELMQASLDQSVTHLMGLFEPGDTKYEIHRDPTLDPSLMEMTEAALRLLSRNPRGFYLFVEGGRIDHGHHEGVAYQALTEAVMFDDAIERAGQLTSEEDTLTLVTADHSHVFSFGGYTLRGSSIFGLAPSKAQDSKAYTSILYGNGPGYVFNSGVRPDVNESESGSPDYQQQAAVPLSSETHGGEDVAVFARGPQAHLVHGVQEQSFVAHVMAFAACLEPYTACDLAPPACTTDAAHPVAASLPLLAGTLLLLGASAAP

[15] = test system: Streptococcus sp. 'group A'; experiment: Streptococcus pyogenes SK(-)GAS viability under kanamycin – luminescence, BacTiterGlo, confirmation, counter-screen for streptokinase expression inhibitor project, dose response (AID 1900); format: functional, organism-based
[16] = viability of HCT116 lacking mutant beta-catenin – cell-based, human colon tumor, dose response (AID 1045); format: functional;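 also: HCT116 colon tumor cells with beta catenin knocked out; cells exposed to compound for 60 hours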
Streptococcus = experiment: GAS UMAA2166 growth inhibition – luminescence, BacTiterGlo, counter-screen for streptokinase expression inhibitor project, dose response (AID 1915); format: functional, organism-based;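 also: potency for reduction of bacterial viability or growth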
[17] = Luminescence Cell-Based Dose Retest to Confirm Inhibitors of Cancer Stem Cells. [Related pubchem assays (depositor defined):AID2717, AID2721]; format: functional, Homo sapiens; settings: Homo sapiens
[18] = viability of PTEN-deleted HCT116 cells – cell-based, HCT116 PTEN knockout, dose response (AID 1047); format: functional;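 also: HCT116 colon tumor cells with PTEN knocked out; cells exposed to compound for 60 hours before readout; potency for loss of cell viability measured by luminescence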

Cc1ccccc1NC(=O)CSc1nnc(-c2ccco2)c(-c2ccco2)n1
IC50 (Bcl-2-like protein 10): 27.3 µM (active)
IC50 (Genome polyprotein): 64.7 µM (active)
IC50 (Estrogen receptor): 14.9 µM (active)
IC50 (Estrogen receptor beta): 1.98 µM (not active)
IC50 (NS3): 8.62 µM (active)

CC(/C=C/c1ccco1)=NNC(=O)c1cc(C)[nH]n1
IC50 [1]: > 56.8 µM (inactive)

O=C(Nc1cccc(Cl)c1)Nc1nnc(-c2ccncc2)s1
CC50 [2]: > 20 µM (active)
CC50 [3]: 9.96 µM (active)
AC50 [4]: 15.5 µM (active)
AC50 (INS1): 4.54 µM (active)
IC50 (cells): > 50 µM (active)
AC50 [5]: 6.08 µM (active)
IC50 [6]: 3.12 µM (active)
AC50 (Paired box protein Pax-8): 2.97 µM (active)
AC50 [7]: 17.3 µM (active)
AC50 [8]: 8.34 µM (active)
CC50 [9]: 6.34 µM (active)
AC50 [10]: 3.28 µM (active)

O=C(O)C(Cc1ccccc1)N1C(=O)/C(=C/C=C/c2ccco2)SC1=S (configuration not stated)
IC50 [11]: 7.33 µM (active)
IC50 (Prothrombin): 75.3 µM (active)
IC50 [12]: 0.947 µM (active)
IC50 (Large T antigen): 33.5 µM (active)
AC50 (ORF 73): 108 µM (active)
IC50 (Troponin, cardiac muscle): > 71.5 µM (inactive)

C/C(=N\NC(=O)c1ccccc1OCc1ccc(F)cc1)c1ccccn1
CC50 [2]: 2.69 µM (active)
CC50 [3]: 3.6 µM (active)
AC50 (INS1): 1.83 µM (active)
IC50 (cells): 3.02 µM (active)
CC50 [9]: 0.765 µM (active)

Cc1cc(N2CCC(C)CC2)nc(NCc2ccccc2)n1
CC50 [2]: > 20 µM (active)
CC50 [3]: > 20 µM (active)
AC50 (INS1): 5.93 µM (active)
IC50 (cells): 45.4 µM (active)
CC50 [9]: 13.4 µM (active)

O=C(Oc1ccc(O)cc1)C12CC3CC(CC(C3)C1)C2
Absolute IC50 (XBP1) (X-box-binding protein 1): 10 µM

C/C(N)=C(/C#N)C(=O)CSc1nc2ccccc2[nH]1
IC50 (Bcl-2-like protein 10): 22.3 µM (active)

CCC(=O)N1CCc2cc(-c3csc(NC(=O)c4ccco4)n3)ccc21
AC50 [13]: 0.109 µM (active)
EC50 (Kallikrein-7): 10.5 µM (inactive)

CCN1CCN(c2ccc(NC(=O)c3cccc4ncccc34)cc2)CC1
IC50 (Bcl-2-like protein 10): 50.1 µM (inactive)
IC50 (Estrogen receptor beta): 0.121 µM (not active)

O=C(NC1CCCCCC1)c1ccc(-n2cnnc2)cc1
IC50 [14]: > 100 µM (inactive)

CCNC(=O)c1c(NC(=O)c2cc(-c3cc(C)ccc3O)[nH]n2)sc2c1CCCC2
EC50 [15]: 2.5 µM (active)
Absolute IC50 (XBP1) (X-box-binding protein 1): 10 µM
EC50 [16]: 15 µM (active)
EC50 (Streptococcus): 7.09 µM (active)
AC50 [17]: 5.2 µM (active)
EC50 [18]: 11.3 µM (active)
